Results as given in EPA's ToxRefDB 2.

Legend:
[1] = test system: rat; details: Subchronic oral toxicity in rodents, sprague dawley, Feed, dose end: 13 week, group: systemic, systemic / in life observation / body weight / body weight + systemic / in life observation / body weight / body weight gain + systemic / …
[2] = test system: dog; details: Subchronic oral toxicity in nonrodent, beagle, Capsule, dose end: 90 day, group: systemic
[3] = test system: dog; details: Chronic toxicity; beagle; Oral; Capsule; dose end: 12 month; group: systemic; systemic / pathology microscopic / urinary bladder / calculus + systemic / pathology microscopic / urinary bladder / crystals + systemic / …
[4] = test system: rat; details: Combined chronic toxicity/carcinogenicity; sprague dawley; Oral; Feed; dose end: 22 month; group: systemic; systemic / clinical chemistry / albumin / albumin + systemic / pathology microscopic / heart / mineralization + systemic / pathology …
[5] = test system: mouse; details: Carcinogenicity; cd1; Oral; Feed; dose end: 18 month; group: systemic; systemic / pathology gross / urinary bladder / calculus + systemic / pathology microscopic / urinary bladder / hyperplasia + systemic / …
[6] = test system: rat; details: Fertility (Segment I), sprague dawley, Oral, Gavage/Intubation, dose end: 7 GD
[7] = test system: rat; details: Fertility (Segment I), sprague dawley, Oral, Gavage/Intubation, dose end: 7 GD; remark: listed apart in the source
[8] = test system: rat; details: Prenatal developmental toxicity study, sprague dawley, Oral, Gavage/Intubation, dose end: 17 GD
[9] = test system: rat; details: Sub-acute repeat dose toxicity, sprague dawley, Oral, Gavage/Intubation, dose end: 4 week, group: systemic
[10] = test system: rat; details: Prenatal developmental toxicity study, sprague dawley, Oral, Gavage/Intubation, dose end: 17 GD; remark: listed apart in the source
[11] = test system: dog; details: Sub-acute repeat dose toxicity, beagle, Oral, Capsule, dose end: 1 month, group: systemic
[12] = test system: rabbit; details: Prenatal developmental toxicity study, new zealand white, Oral, Gavage/Intubation, dose end: 19 GD
[13] = test system: rat; details: Prenatal developmental toxicity study; sprague dawley; Oral; Gavage/Intubation; dose end: 17 GD; group: maternal; systemic / in life observation / body weight / body weight + systemic / in life observation / body weight / body weight gain + systemic / in…
[14] = test system: rabbit; details: Prenatal developmental toxicity study; new zealand white; Oral; Gavage/Intubation; dose end: 19 GD; group: maternal; systemic / in life observation / body weight / body weight gain + systemic / in life observation / food consumption / food consumption
[15] = test system: mouse; details: Subchronic oral toxicity in rodents, b6c3f1, Feed, dose end: 13 week, group: systemic
[16] = test system: rat; details: Subchronic oral toxicity in rodents, fischer, Feed, dose end: 13 week, group: systemic, systemic / in life observation / body weight / body weight + systemic / in life observation / body weight / body weight gain + systemic / in…
[17] = test system: rat; details: Neurotoxicity screening battery, wistar, Oral, Feed, dose end: 90 day, group: cannot be grouped
[18] = test system: rabbit; details: Prenatal developmental toxicity study, himalayan, Oral, Gavage/Intubation, dose end: 19 GD
[19] = test system: rat; details: Combined chronic toxicity/carcinogenicity, sprague dawley, Oral, Feed, dose end: 115 week
[20] = test system: dog; details: Chronic toxicity, beagle, Oral, Feed, dose end: 53 week
[21] = test system: rabbit; details: Prenatal developmental toxicity study, himalayan, Oral, Gavage/Intubation, dose end: 18 GD
[22] = test system: rat; details: Subchronic oral toxicity in rodents, sprague dawley, Feed, dose end: 13 week
[23] = systemic / pathology microscopic / urinary bladder / calculus + systemic / pathology microscopic / urinary bladder / hemorrhage + systemic…
[24] = group: maternal, reproductive / reproductive performance / estrous cycle / abnormal + reproductive / reproductive performance / estrous cycle / corpora lutea…
[25] = group: parental, systemic / in life observation / body weight / body weight + systemic / in life observation / body weight / body weight gain
[26] = group: parental, systemic / in life observation / body weight / body weight + systemic / in life observation / body weight / body weight gain + systemic / in…
[27] = group: maternal, reproductive / reproductive performance / estrous cycle / abnormal
[28] = group: parental, systemic / in life observation / body weight / body weight gain
[29] = group: parental, systemic / in life observation / body weight / body weight gain + systemic / in life observation / food consumption / food consumption
[30] = group: developmental, developmental / developmental malformation / trunk / absent genital tubercle + developmental / developmental malformation / trunk / anal …
[31] = group: maternal, systemic / in life observation / body weight / body weight + systemic / in life observation / body weight / body weight gain + systemic / in…
[32] = systemic / clinical chemistry / alanine aminotransferase (alt/sgpt) / alanine aminotransferase (alt/sgpt) + systemic / in life observation…
[33] = systemic / organ weight / salivary glands / absolute + systemic / pathology microscopic / vagina / diestrus
[34] = group: developmental, developmental / developmental malformation / bone / unossified + systemic / in life observation / body weight / fetal weight
[35] = systemic / in life observation / clinical signs / defecation (diarrhea)
[36] = systemic / in life observation / clinical signs / defecation (diarrhea) + systemic / clinical chemistry / alanine aminotransferase (alt/sgpt…
[37] = group: developmental, developmental / developmental malformation / bone / incomplete ossification + developmental / developmental malformation / bone / unossified…
[38] = group: maternal, systemic / in life observation / body weight / body weight gain + systemic / in life observation / food consumption / food consumption
[39] = group: maternal, systemic / in life observation / body weight / body weight gain + systemic / in life observation / food consumption / food consumption + …
[40] = systemic / organ weight / liver / relative to body weight + systemic / pathology microscopic / liver / pigmentation
[41] = group: developmental, developmental / developmental malformation / bone / cranioschisis + developmental / developmental malformation / bone / exencephaly + …
[42] = group: maternal, systemic / in life observation / clinical signs / swelling
[43] = group: cholinesterase, cholinesterase / cholinesterase / cholinesterase / plasma cholinesterase (che) + cholinesterase / cholinesterase / cholinesterase / brain (…
[44] = group: systemic, systemic / pathology microscopic / liver / eosinophilic focus
[45] = group: cholinesterase, cholinesterase / cholinesterase / cholinesterase / cholinesterase (che)
[46] = group: systemic, systemic / clinical chemistry / alkaline phosphatase (alp/alk) / alkaline phosphatase (alp/alk)
[47] = group: maternal, reproductive / reproductive performance / aborted / aborted + reproductive / reproductive performance / resorptions / resorptions + systemic…
[48] = group: cholinesterase, cholinesterase / cholinesterase / cholinesterase / erythrocyte cholinesterase (che)
[49] = group: systemic, systemic / organ weight / liver / relative to body weight + systemic / pathology microscopic / liver / necrosis

## CCS(=O)(=O)c1nc2ccccn2c1S(=O)(=O)NC(=O)Nc1nc(OC)cc(OC)n1 [Sulfosulfuron]
[1]
  LEL: 1280 mg/kg/day
  LOAEL: 1280 mg/kg/day
  NEL: 370 mg/kg/day
  NOAEL: 370 mg/kg/day
[2]; systemic / pathology microscopic / urinary bladder / calculus
  LEL: 100 mg/kg/day
[2]; [23]
  NEL: 30 mg/kg/day
  NOAEL: 100 mg/kg/day
[2]; systemic / urinalysis / sediment microscopic / crystalluria
  LOAEL: 300 mg/kg/day
[3]
  LEL: 500 mg/kg/day
  LOAEL: 500 mg/kg/day
  NEL: 100 mg/kg/day
  NOAEL: 100 mg/kg/day
[4]
  LEL: 244 mg/kg/day
  LOAEL: 244 mg/kg/day
  NEL: 24.4 mg/kg/day
  NOAEL: 24.4 mg/kg/day
[5]
  LEL: 394 mg/kg/day
  LOAEL: 394 mg/kg/day
  NEL: 93.4 mg/kg/day
  NOAEL: 93.4 mg/kg/day

## CN(C)C(=O)NC1(c2ccccc2)CCN(CC[C@@]2(c3ccc(F)c(F)c3)CN(C(=O)c3ccccc3)CCO2)CC1.Cl
[6]; [24]
  LEL: 250 mg/kg/day
  LOAEL: > 250 mg/kg/day
  NEL: 70 mg/kg/day
  NOAEL: ≥ 250 mg/kg/day
[6]; [25]
  LEL: 70 mg/kg/day
  LOAEL: 70 mg/kg/day
[6]; [26]
  NEL: 20 mg/kg/day
  NOAEL: 20 mg/kg/day
[7]; [27]
  LEL: 20 mg/kg/day
  LOAEL: 100 mg/kg/day
  NEL: < 20 mg/kg/day
[7]; [24]
  NOAEL: 20 mg/kg/day
[7]; [28]
  LEL: 20 mg/kg/day
  NEL: < 20 mg/kg/day
[7]; [29]
  LOAEL: 100 mg/kg/day
  NOAEL: 20 mg/kg/day
[8]; [30]
  LEL: 500 mg/kg/day
  LOAEL: 500 mg/kg/day
  NEL: 100 mg/kg/day
  NOAEL: 100 mg/kg/day
[8]; [31]
  LOAEL: 500 mg/kg/day
  NEL: 20 mg/kg/day
  NOAEL: 100 mg/kg/day
[8]; group: maternal, systemic / in life observation / clinical signs / piloerection + systemic / pathology gross / kidney / reduced size
  LEL: 100 mg/kg/day
[9]; [32]
  LOAEL: 100 mg/kg/day
  NOAEL: 20 mg/kg/day
[9]; [33]
  LEL: 20 mg/kg/day
  NEL: < 20 mg/kg/day
[10]; [34]
  LEL: 250 mg/kg/day
  LOAEL: 250 mg/kg/day
  NEL: 70 mg/kg/day
  NOAEL: 70 mg/kg/day
[10]; [31]
  LEL: 250 mg/kg/day
  LOAEL: 250 mg/kg/day
  NEL: 70 mg/kg/day
  NOAEL: 70 mg/kg/day
[11]; [35]
  LEL: 20 mg/kg/day
  NEL: < 20 mg/kg/day
[11]; [36]
  LOAEL: > 180 mg/kg/day
  NOAEL: ≥ 180 mg/kg/day
[12]; [37]
  LEL: 200 mg/kg/day
  LOAEL: 200 mg/kg/day
  NEL: 60 mg/kg/day
  NOAEL: 60 mg/kg/day
[12]; [38]
  LEL: 60 mg/kg/day
  LOAEL: 60 mg/kg/day
[12]; [39]
  NEL: 20 mg/kg/day
  NOAEL: 20 mg/kg/day
[13]
  LEL: 250 mg/kg/day
  LOAEL: > 250 mg/kg/day
  NEL: < 250 mg/kg/day
  NOAEL: ≥ 250 mg/kg/day
[14]
  LEL: 100 mg/kg/day
  LOAEL: > 200 mg/kg/day
  NEL: 20 mg/kg/day
  NOAEL: ≥ 200 mg/kg/day

## Nc1c(Br)cc(Br)c2c1C(=O)c1ccccc1C2=O [1-Amino-2,4-dibromoanthraquinone]
[15]; [40]
  LEL: 500 mg/kg/day
  NEL: < 500 mg/kg/day
[15]; systemic / pathology microscopic / liver / hypertrophy
  LOAEL: 1850 mg/kg/day
[15]; systemic / pathology microscopic / liver / hypertrophy + systemic / in life observation / body weight / body weight gain + systemic / in …
  NOAEL: 1080 mg/kg/day
[16]
  LEL: 150 mg/kg/day
  LOAEL: 150 mg/kg/day
  NEL: < 150 mg/kg/day
  NOAEL: < 150 mg/kg/day

## CC(Cc1ccc(C(C)(C)C)cc1)CN1C[C@@H](C)O[C@@H](C)C1 (stereo partly drawn) [(2R,6S)-Fenpropimorph]
[17]; cholinesterase / cholinesterase / cholinesterase / cholinesterase (che)
  LEL: 0.8 mg/kg/day
[17]; cholinesterase / cholinesterase / cholinesterase / cholinesterase (che) + systemic / clinical chemistry / alanine aminotransferase (alt/sgpt…
  NEL: 0.1 mg/kg/day
[17]; systemic / organ weight / liver / absolute + systemic / organ weight / liver / relative to body weight
  LOAEL: 7.1 mg/kg/day
[17]; systemic / organ weight / liver / absolute + systemic / organ weight / liver / relative to body weight + cholinesterase / cholinesterase / …
  NOAEL: 0.7 mg/kg/day
[18]; [41]
  LEL: 30 mg/kg/day
  LOAEL: 30 mg/kg/day
  NEL: 15 mg/kg/day
  NOAEL: 15 mg/kg/day
[18]; [42]
  LEL: 30 mg/kg/day
  LOAEL: 30 mg/kg/day
  NEL: 15 mg/kg/day
  NOAEL: 15 mg/kg/day
[19]; [43]
  LEL: 0.2 mg/kg/day
  LOAEL: > 8.8 mg/kg/day
  NEL: < 0.2 mg/kg/day
  NOAEL: ≥ 8.8 mg/kg/day
[19]; [44]
  LEL: 0.2 mg/kg/day
  NEL: < 0.2 mg/kg/day
[19]; group: systemic, systemic / pathology microscopic / liver / hypertrophy + systemic / organ weight / liver / relative to body weight
  NOAEL: 1.7 mg/kg/day
[19]; group: systemic, systemic / pathology microscopic / liver / hypertrophy + systemic / pathology microscopic / liver / eosinophilic focus + systemic / …
  LOAEL: 8.8 mg/kg/day
[20]; [45]
  LEL: 12.3 mg/kg/day
  LOAEL: 12.3 mg/kg/day
  NEL: 3.2 mg/kg/day
  NOAEL: 3.2 mg/kg/day
[20]; [46]
  LEL: 12.3 mg/kg/day
  LOAEL: 12.3 mg/kg/day
  NEL: 3.2 mg/kg/day
  NOAEL: 3.2 mg/kg/day
[21]; group: developmental, developmental / developmental malformation / general / [other]
  LOAEL: 36 mg/kg/day
[21]; group: developmental, developmental / developmental malformation / general / [other] + developmental / developmental malformation / bone / misshapen
  LEL: 36 mg/kg/day
[21]; [47]
  LEL: 36 mg/kg/day
  LOAEL: 36 mg/kg/day
[22]; [45]
  LOAEL: > 1.54 mg/kg/day
  NOAEL: ≥ 1.54 mg/kg/day
[22]; [48]
  LEL: 0.465 mg/kg/day
  NEL: < 0.465 mg/kg/day
[22]; [49]
  LEL: 0.768 mg/kg/day
  LOAEL: 1.54 mg/kg/day
  NEL: 0.382 mg/kg/day
  NOAEL: 0.768 mg/kg/day
